# Reference: ChEMBL document CHEMBL4265869, “Prodrugs of triterpenoids and their derivatives” (Eur J Med Chem, 2017)
# Key:
# [1] = tested on: 518A2; experiment: Cytotoxicity in human 518A2 cells by photometric SRB assay; assay type: functional, cell-based
# [2] = tested on: FaDu; experiment: Cytotoxicity in human FADU cells by photometric SRB assay; assay type: functional, cell-based
# [3] = tested on: HT-29; experiment: Cytotoxicity in human HT-29 cells by photometric SRB assay; assay type: functional, cell-based
# [4] = tested on: MCF7; experiment: Cytotoxicity in human MCF7 cells by photometric SRB assay; assay type: functional, cell-based
# [5] = tested on: A549; experiment: Cytotoxicity in human A549 cells by photometric SRB assay; assay type: functional, cell-based
# [6] = tested on: SW-1736; experiment: Cytotoxicity in human SW1736 cells by photometric SRB assay; assay type: functional, cell-based
# [7] = Selectivity index, ratio of EC50 for mouse NIH/3T3 cells to EC50 for human A549 cells; assay type: toxicity; settings: NIH/3T3 cells and A549 cells, read-out: Ratio EC50
# [8] = tested on: A549; experiment: Cytotoxicity in human A549 cells; assay type: functional, cell-based
structure (smiles),measurement,setting,value
COC(=O)[C@]12CCC(C)(C)C[C@H]1C1=CC[C@@H]3[C@@]4(C)C[C@@H](O)[C@H](OS(N)(=O)=O)C(C)(C)[C@@H]4CC[C@@]3(C)[C@]1(C)CC2,EC50,[1],2.2 to 3.5 µM
same,EC50,[2],2.2 to 3.5 µM
same,EC50,[3],2.2 to 3.5 µM
same,EC50,[4],2.2 to 3.5 µM
same,EC50,[5],2.2 to 3.5 µM
same,EC50,[6],2.2 to 3.5 µM
COC(=O)[C@]12CCC(C)(C)C[C@H]1C1=CC(=O)[C@@H]3[C@@]4(C)CC[C@H](OS(N)(=O)=O)C(C)(C)[C@@H]4CC[C@@]3(C)[C@]1(C)CC2,selectivity ratio,[7],2.7
"C/C=C(\C)C(=O)O[C@@H]1CC(C)(C)C[C@H]2C3=CC[C@@H]4[C@@]5(C)CC[C@H](OC(=O)Cc6ccccc6Cc6c(Cl)cccc6Cl)C(C)(C)[C@@H]5CC[C@@]4(C)[C@]3(C)CCC12C(=O)O (single isomer, unassigned)",IC50,[8],0.15 µM
"C/C=C(\C)C(=O)O[C@@H]1CC(C)(C)C[C@H]2C3=CC[C@@H]4[C@@]5(C)CC[C@H](Oc6ccccc6C(C)=O)C(C)(C)[C@@H]5CC[C@@]4(C)[C@]3(C)CCC12C(=O)O (single isomer, unassigned)",IC50,[8],0.77 µM
"CC(C)=CC(=O)O[C@@H]1CC(C)(C)C[C@H]2C3=CC[C@@H]4[C@@]5(C)CC[C@H](OC(=O)Cc6ccccc6Cc6c(Cl)cccc6Cl)C(C)(C)[C@@H]5CC[C@@]4(C)[C@]3(C)CCC12C(=O)O (single isomer, unassigned)",IC50,[8],0.42 µM
